The target in one test is GABAB receptor (Homo sapiens, UniProt Q9UBS5). The experiment in a line: Two-electrode voltage clamp at GABAB receptors (subtype not stated) expressed in Xenopus oocytes. Particulars: for effect as agonists or antagonists: 300 μM compound; for inhibition at 1000 µM: read-out: inhibition of 1 μM GABA (weak antagonist effect); for EC50: read-out: EC50 as GABAB receptor agonist.

The target in the next test is GABAA (α2β2γ2s) receptor (Homo sapiens, UniProt P47869+P47870). Description: Two-electrode voltage clamp at GABAA (α2β2γ2s) receptors expressed in Xenopus oocytes. Conditions: for effect as agonist or antagonist: 1 mM compound; for current response to compound in the presence of GABA: 1 mM compound + 3 μM GABA; for current response to compound in the presence of GABA / response to compound alone / current response to GABA alone: FIG. 9; for response to compound alone: 1 mM compound alone; for current response to GABA alone: oocyte clamped at −60 mV.

The next test deals with GABAC (ρ1) receptor (Homo sapiens, UniProt P24046). The experiment in a line: Two-electrode voltage clamp at GABAC (ρ1) receptors expressed in Xenopus oocytes. Conditions: for current response to compound in the presence of GABA: 100 μM compound + 1 μM GABA; for current response to compound in the presence of GABA / response to compound alone / current response to GABA alone: FIG. 11(a); for response to compound alone: 100 μM compound alone; for Hill coefficient (nH) for GABA in the presence of the antagonist / I/Imax, maximal GABA response maintained in the presence of the antagonist: (±)-cis 40 μM or (±)-trans 30 μM; for I/Imax, maximal GABA response maintained in the presence of the antagonist / type of antagonism: FIG. 12; for type of antagonism: parallel shift of the GABA dose-response curves; for inhibition at 100 µM: read-out: inhibition of the GABA response.

In a further test the target is T1, GABAB (1b,2) receptor (Homo sapiens, UniProt Q9UBS5).
T1 construct: expressed in transfected cells; host or cells: Xenopus laevis oocytes injected with mRNA
The experiment in a line: Two-electrode voltage clamp at GABAB (1b,2) receptors co-expressed with GIRK1 and GIRK4 in Xenopus oocytes. It counts as cell-based. Conditions: for effect as agonist or antagonist: 300 μM compound; for current response to compound in the presence of GABA: 300 μM compound + 1 μM GABA; for current response to compound in the presence of GABA / response to compound alone: FIG. 10(a); for response to compound alone: 300 μM compound alone.

A further test addresses GABAC (ρ2) receptor (Homo sapiens, UniProt P28476). Description: Two-electrode voltage clamp at GABAC (ρ2) receptors expressed in Xenopus oocytes. Conditions: for current response to compound in the presence of GABA: 100 μM compound + 1 μM GABA; for current response to compound in the presence of GABA / response to compound alone / current response to GABA alone: FIG. 11(b); for response to compound alone: 100 μM compound alone; for inhibition at 100 µM: read-out: inhibition of the GABA response.

The target of another test is T2, GABAC (ρ3) receptor (Rattus norvegicus, UniProt P50573).
T2 sequence (P50573 16-464): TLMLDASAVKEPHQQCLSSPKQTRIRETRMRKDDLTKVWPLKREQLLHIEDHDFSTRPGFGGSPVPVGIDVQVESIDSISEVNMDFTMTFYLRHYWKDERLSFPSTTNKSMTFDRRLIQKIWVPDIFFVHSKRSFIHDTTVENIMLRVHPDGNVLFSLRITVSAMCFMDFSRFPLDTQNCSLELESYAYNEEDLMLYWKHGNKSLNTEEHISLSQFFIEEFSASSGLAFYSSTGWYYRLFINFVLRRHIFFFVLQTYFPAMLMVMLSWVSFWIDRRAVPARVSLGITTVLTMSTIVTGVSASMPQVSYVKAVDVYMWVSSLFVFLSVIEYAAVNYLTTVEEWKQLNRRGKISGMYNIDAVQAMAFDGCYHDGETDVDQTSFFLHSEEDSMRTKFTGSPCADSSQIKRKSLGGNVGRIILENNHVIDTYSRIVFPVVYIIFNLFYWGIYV
The experiment in a line: Two-electrode voltage clamp at GABAC (ρ3) receptors expressed in Xenopus oocytes. Conditions: for current response to compound in the presence of GABA: 100 μM compound + 10 μM GABA; for response to compound alone: 100 μM compound alone; for inhibition at 100 µM: read-out: inhibition of the GABA response.

Another test deals with T3, GABAB (1a,2) receptor (Homo sapiens, UniProt Q9UBS5).
T3 construct: expressed in transfected cells; host or cells: Xenopus laevis oocytes injected with mRNA
The experiment in a line: Two-electrode voltage clamp at GABAB (1a,2) receptors co-expressed with GIRK1 and GIRK4 in Xenopus oocytes. It counts as cell-based. Particulars: for effect as agonist or antagonist: 300 μM compound; for current response to compound in the presence of GABA: 300 μM compound + 3 μM GABA; for current response to compound in the presence of GABA / response to compound alone: FIG. 10(b); for response to compound alone: 300 μM compound alone.

The target in a further test is GABAC receptors. Particulars: Woodward et al, 1993; read-out: KB as antagonist at GABAC receptors; cited from earlier work.
In another test the test system is GABAA receptors. The experiment in a line: Activity of ACPMPA isomers at GABAA receptors (subtype not stated), as for ACPBPA. It counts as cell-based. Conditions: for reduction of the current produced by GABA (10 μM): 300 μM compound.
The next test concerns the target GABAC receptor (Homo sapiens, UniProt P24046). Description: Activity of ACPMPA isomers as GABAC receptor antagonists (subtype not stated), as for ACPBPA. The class given is cell-based. The arrangement: expressed in transfected cells. Particulars: for Kb: read-out: KB as GABAC receptor antagonist.

“Also recorded” adds a separate entry of the source.

Chain of GABAA (α2β2γ2s) receptor (P47869 29-451): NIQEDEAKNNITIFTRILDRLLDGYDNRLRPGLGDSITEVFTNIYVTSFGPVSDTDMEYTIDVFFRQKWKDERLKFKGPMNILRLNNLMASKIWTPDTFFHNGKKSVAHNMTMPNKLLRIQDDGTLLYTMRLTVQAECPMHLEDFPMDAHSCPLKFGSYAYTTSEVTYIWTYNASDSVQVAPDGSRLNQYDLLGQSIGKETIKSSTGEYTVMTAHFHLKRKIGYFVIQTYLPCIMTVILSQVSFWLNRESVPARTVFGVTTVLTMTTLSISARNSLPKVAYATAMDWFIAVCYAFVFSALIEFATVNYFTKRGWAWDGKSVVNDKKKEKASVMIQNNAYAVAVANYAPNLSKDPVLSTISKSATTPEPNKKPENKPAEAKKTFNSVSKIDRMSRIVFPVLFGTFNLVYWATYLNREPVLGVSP
Chain of GABAA (α2β2γ2s) receptor (P47870 25-512 limits assumed): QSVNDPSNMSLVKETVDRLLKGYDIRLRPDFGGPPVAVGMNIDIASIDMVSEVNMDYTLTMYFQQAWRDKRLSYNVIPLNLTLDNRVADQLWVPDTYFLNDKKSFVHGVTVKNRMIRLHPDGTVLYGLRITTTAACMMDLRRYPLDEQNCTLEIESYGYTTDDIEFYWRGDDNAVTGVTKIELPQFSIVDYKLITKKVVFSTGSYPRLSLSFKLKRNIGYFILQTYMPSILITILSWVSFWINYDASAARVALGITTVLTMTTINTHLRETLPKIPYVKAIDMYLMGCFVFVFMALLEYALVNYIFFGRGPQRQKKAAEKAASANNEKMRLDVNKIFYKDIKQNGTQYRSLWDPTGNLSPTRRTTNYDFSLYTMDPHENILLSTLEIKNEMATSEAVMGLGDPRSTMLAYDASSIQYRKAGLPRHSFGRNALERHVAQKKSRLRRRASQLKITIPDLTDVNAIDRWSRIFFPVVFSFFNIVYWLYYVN
Chain of GABAA (α2β2γ2s) receptor (P18507 40-467 isoform P18507-1 partner limits assumed): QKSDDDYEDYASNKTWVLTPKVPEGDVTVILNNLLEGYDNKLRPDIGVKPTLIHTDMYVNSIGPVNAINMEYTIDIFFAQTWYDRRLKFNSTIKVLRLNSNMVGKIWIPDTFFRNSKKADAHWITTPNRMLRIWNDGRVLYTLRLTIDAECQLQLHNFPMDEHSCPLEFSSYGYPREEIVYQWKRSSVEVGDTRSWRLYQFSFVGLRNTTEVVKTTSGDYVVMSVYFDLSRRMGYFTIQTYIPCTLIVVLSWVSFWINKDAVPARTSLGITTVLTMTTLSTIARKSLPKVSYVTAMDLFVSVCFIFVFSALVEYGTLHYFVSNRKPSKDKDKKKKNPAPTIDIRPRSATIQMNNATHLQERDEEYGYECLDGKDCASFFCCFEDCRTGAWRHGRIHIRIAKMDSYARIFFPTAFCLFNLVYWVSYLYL
Chain of GABAC receptor (P24046 22-479): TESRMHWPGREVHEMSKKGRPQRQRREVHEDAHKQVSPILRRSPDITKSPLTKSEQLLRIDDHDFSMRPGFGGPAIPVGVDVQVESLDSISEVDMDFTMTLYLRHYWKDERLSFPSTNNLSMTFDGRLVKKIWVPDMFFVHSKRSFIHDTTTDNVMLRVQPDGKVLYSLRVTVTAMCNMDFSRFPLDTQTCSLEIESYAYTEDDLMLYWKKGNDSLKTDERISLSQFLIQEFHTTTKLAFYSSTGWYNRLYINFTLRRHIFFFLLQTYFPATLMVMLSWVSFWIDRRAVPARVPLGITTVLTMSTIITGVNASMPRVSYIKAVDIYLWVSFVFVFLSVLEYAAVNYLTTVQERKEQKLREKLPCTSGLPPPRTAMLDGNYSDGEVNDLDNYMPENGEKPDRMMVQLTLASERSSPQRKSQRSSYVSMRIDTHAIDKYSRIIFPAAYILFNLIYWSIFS
Chain of GABAC (ρ1) receptor (P24046 22-479): as above
T3 sequence (Q9UBS5 15-961 limits assumed): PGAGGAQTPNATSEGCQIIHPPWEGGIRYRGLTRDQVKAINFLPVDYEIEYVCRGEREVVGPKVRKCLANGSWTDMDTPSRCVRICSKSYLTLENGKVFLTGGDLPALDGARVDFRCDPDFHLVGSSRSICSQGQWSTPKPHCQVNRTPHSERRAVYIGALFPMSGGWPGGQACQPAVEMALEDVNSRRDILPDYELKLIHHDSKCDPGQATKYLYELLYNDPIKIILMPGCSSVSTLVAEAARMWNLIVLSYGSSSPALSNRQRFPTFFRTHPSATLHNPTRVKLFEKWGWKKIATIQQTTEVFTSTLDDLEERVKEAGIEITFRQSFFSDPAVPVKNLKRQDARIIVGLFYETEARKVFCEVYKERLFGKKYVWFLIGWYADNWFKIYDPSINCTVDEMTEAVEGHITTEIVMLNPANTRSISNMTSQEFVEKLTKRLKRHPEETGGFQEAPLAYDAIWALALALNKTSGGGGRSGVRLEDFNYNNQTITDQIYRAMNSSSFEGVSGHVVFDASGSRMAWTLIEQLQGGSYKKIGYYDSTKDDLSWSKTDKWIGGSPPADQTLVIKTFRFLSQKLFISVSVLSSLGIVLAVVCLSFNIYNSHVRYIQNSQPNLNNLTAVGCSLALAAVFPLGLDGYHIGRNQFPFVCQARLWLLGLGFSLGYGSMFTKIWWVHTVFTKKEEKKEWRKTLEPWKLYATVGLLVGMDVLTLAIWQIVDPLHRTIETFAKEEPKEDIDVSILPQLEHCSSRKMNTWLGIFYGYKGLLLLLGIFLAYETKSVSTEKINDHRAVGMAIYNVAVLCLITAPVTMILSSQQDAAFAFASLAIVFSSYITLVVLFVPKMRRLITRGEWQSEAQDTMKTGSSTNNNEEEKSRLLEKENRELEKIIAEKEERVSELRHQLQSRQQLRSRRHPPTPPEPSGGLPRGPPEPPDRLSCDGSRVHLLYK
T3 sequence (O75899 42-941 partner): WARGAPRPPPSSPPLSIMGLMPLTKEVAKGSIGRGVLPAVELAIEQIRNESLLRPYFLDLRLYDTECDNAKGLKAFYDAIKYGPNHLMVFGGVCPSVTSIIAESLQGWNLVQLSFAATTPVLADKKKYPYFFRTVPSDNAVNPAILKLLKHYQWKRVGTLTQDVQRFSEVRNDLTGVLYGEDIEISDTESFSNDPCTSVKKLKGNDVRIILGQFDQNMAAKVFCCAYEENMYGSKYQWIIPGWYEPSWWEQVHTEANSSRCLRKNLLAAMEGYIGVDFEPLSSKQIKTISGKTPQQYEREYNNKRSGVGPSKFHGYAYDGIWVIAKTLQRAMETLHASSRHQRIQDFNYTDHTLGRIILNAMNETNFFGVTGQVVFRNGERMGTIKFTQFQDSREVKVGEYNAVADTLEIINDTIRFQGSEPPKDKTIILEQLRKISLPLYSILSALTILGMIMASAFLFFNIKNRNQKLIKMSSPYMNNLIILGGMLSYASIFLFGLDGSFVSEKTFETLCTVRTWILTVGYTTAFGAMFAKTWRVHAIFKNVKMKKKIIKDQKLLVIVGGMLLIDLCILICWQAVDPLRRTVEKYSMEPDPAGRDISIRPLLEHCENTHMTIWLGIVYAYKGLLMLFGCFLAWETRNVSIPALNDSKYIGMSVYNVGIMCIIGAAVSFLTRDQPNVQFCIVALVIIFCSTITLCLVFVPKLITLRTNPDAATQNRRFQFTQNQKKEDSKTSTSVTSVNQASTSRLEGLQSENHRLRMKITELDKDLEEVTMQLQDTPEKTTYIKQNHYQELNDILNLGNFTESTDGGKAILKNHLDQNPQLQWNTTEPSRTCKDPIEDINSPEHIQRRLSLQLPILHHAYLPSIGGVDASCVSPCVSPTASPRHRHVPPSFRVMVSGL
T1 sequence (Q9UBS5 1-844 isoform Q9UBS5-2): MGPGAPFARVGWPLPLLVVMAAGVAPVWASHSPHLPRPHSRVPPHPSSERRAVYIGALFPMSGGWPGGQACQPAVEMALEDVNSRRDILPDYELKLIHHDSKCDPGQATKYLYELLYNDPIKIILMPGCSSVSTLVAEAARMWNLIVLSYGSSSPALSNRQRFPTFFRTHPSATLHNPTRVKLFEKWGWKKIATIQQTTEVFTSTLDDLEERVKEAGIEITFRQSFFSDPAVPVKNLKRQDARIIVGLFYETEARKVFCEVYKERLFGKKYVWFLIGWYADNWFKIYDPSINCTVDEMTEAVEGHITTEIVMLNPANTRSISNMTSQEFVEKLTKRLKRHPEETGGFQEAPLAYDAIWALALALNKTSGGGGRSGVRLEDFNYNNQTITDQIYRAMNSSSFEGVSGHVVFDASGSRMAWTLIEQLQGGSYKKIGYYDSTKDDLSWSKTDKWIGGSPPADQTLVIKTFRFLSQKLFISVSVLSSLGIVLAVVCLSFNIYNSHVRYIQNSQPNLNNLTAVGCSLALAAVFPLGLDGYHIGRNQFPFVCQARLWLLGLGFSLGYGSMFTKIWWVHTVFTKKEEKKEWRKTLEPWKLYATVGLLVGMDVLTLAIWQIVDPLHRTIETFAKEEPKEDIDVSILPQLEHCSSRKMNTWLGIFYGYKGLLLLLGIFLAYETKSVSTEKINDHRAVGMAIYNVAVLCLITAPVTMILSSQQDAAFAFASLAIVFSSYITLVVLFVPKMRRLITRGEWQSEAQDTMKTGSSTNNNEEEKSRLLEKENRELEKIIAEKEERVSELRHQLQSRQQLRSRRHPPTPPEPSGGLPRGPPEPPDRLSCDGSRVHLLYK
T1 sequence (O75899 42-941 partner): as the sequence (O75899 42-941 partner) above
Chain of GABAC (ρ2) receptor (P28476 21-465): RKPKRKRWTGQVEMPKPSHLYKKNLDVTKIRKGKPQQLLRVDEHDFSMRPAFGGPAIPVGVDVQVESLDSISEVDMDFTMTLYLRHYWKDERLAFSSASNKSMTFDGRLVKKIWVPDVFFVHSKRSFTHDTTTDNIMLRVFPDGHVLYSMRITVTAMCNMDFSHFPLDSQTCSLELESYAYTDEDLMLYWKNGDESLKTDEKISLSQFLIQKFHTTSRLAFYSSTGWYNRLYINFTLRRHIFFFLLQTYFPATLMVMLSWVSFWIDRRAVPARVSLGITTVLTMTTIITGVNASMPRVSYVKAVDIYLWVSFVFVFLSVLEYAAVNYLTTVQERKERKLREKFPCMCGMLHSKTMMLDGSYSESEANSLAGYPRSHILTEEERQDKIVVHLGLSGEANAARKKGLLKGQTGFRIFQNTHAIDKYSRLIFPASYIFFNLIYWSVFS
Procedure for GABAA (α2β2γ2s) receptor: (§1) For example, ρ1 GABAC receptor subunit subcloned in ρ1 cDNA 1.1 and is linearised using the restriction enzyme Xbal . Following this, the mRNA is then prepared from the linearised ρ1 subunit using T7 polymerase. This genetic material is then injected into the Xenopus laevis oocytes and incubated for 2 to 9 days, to allow for the process of translation to occur. After this process the Xenopus laevis oocytes show expression of the receptor and ion channel assembly on the cell surface.
(§2) Female Xenopus laevis frogs were anaesthetised with tricaine (850 mg/500 mL) and a lobe of their ovaries surgically removed. […] Stage V-VI oocytes were collected and stored in Frog Ringer (ND96) wash solution (96 mM NaCI, 2 mM KCI, 1 mM MgCl2.6H20, 1.8 mM CaCl2.2H2O, 5 mM HEPES (hemi-Na salt), pH 7.5) supplemented with 2.5 mM sodium pyruvate, 0.5 mM theophylline, and 50 μg/mL gentamicin.
(§3) Micropipettes were prepared by the microprocessor-controlled vertical pipette puller (World Precision Instruments) and bevelled to a tip diameter of 10-20 μm. The micropipettes were filled with mineral oil to ensure the mRNA solution would be drawn up into the micropipette under negative pressure. A Nanoject injector (World Precision Instruments) was used to deliver GABAA, GABAB or GABAC mRNA (50 nL) into the cytoplasm of the Xenopus oocytes. After injection with the appropriate mRNA, the oocytes were placed in a storage solution of ND96 wash solution supplemented with 2.5 mM sodium pyruvate, 0.5 mM theophylline and gentamicin (50 μg/mL) and stored on a slow speed rotator in an 18° C. controlled temperature incubator (Contherm, Petone, NZ). The storage solution was changed daily (or twice daily) and dead or unhealthy oocytes were removed to prolong the health of the remaining cells.
(§4) Prior to recording, 100 mM stock solutions of (±)-cis- and (±)-trans-3-ACPBPA were prepared using autoclaved MilliQ water and stored at −20° C. […] At the time the experiments were to be recorded, the stock solutions were diluted with ND96 wash solution for testing on GABAA and GABAC receptors or 45 mM K^+ solution (45 mM NaCI, 45 mM KCI, 1 mM MgCl2.6H2O, 1.8 mM CaCl2.2H2O, 5 mM HEPES (hemi-Na salt), pH 7.5 at 25° C.) for testing on GABAB receptors.
(§5) After 2 to 9 days of incubation, receptor activity using two-electrode voltage clamp recordings were acquired by means of a Geneclamp 500 amplifier (Axon Instruments Inc., Foster City, Calif., USA), a MacLab 2e recorder (AD Instruments, Sydney, Australia) and Chart™ v.3.6.3 for Macintosh (AD Instruments) to digitise the current and voltage signals.
(§6) The recording microelectrodes were prepared from borosilicate glass capillaries (1.2 mm i.d.×0.94 mm o.d.; Clark Electromedical Instruments, Pangbourne, UK) using a micropipette puller (World Precision Instruments). The microelectrodes (tip resistances 0.5-1.5 MΩ) were filled with 3 M potassium chloride and a microscope was used to direct the insertion of these microelectrodes into the oocyte positioned in the cell bath. The membrane potential of the oocyte was then voltage-clamped at −60 mV.
(§7) Oocytes with an adequate level of receptor expression (with maximal currents (I)≧50 nA) were used for subsequent recording. […] Oocytes were washed for 3-4 minutes between applications of drug doses to ensure for receptor recovery.
Procedure for GABAB receptor: as §4
The expression of GABAB receptors was primarily investigated by superfusing the cell bath with ND96 wash solution under gravity at a flow rate of approximately 5 mL/min.
Procedure for GABAC (ρ1) receptor: as §1, §2, §3, §4, §5, §6, §7
Procedure for GABAC (ρ2) receptor: as §1, §2, §3, §4, §5, §6, §7
Procedure for GABAC (ρ3) receptor: as §1, §2, §3, §4, §5, §6, §7

`CCCCP(=O)(O)[C@H]1CC[C@@H](N)C1` (racemic) [(±)-cis-3-ACPBPA, (±)-cis-(3-aminocyclopentanyl)butylphosphinic acid]: on GABAB receptor, the Kb was over 1000 µM, the “effect as agonists or antagonists” value is listed as “no effect as agonists or antagonists” and the inhibition at 1000 µM came out at 10%. At GABAA (α2β2γ2s) receptor, the “effect as agonist or antagonist” value is listed as “did not act as an agonist or antagonist; also recorded: no effect as an agonist or antagonist; also recorded: no effect as an agonist or an antagonist; also recorded: No effect”, the “current response to compound in the presence of GABA” value (“current response to compound” below) is given as 65 nA and the “response to compound alone” value is “no response was detected”. Besides, at GABAC (ρ1) receptor, the Kb was 12.5 ± 1.2 µM, the “antagonist activity in words” value is on record as “potent antagonists”, the “current response to compound” value is 2 nA and the “response to compound alone” value is recorded as “no recordable response”. Besides, on GABAC (ρ1) receptor, the “Hill coefficient (nH) for GABA in the presence of the antagonist” value is 2.3±0.2; the “I/Imax, maximal GABA response maintained in the presence of the antagonist” value came to 0.91±0.02; the type of antagonism entry was “competitive antagonists”; the inhibition at 100 µM is about 100%. Besides, at GABAC (ρ1) receptor (ratio of estimated KB values), the “potency relative to (±)-trans-3-ACPBPA” value was 3.5 times. For the same molecule, at GABAB (1b,2) receptor, the Kb is over 300 µM, the “effect as agonist or antagonist” value is given as “did not act as an agonist or antagonist; also recorded: no apparent effect as an agonist or antagonist; also recorded: no effect as agonists or antagonists; also recorded: No effect”, the “current response to compound” value is recorded as 20 nA and the “response to compound alone” value is “no response was detected”. For the same molecule, at GABAC (ρ2) receptor, the “antagonist activity in words” value is on record as “potent antagonists”, the “current response to compound” value is recorded as 4 nA, the “response to compound alone” value is listed as “no detectable response” and the inhibition at 100 µM was about 100%. Further, on GABAC (ρ3) receptor, the “antagonist activity in words” value is “potent antagonists” and the inhibition at 100 µM came out at 85%. Moreover, on GABAC (ρ3) receptor (FIG. 11(c)), the “current response to compound” value came to 120 nA and the “response to compound alone” value is given as “no measurable response”. Further, at GABAB (1a,2) receptor, the Kb was over 300 µM, the “effect as agonist or antagonist” value is “did not act as an agonist or antagonist; also recorded: no apparent effect as an agonist or antagonist; also recorded: no effect as agonists or antagonists; also recorded: No effect”, the “current response to compound” value is on record as 405 nA and the “response to compound alone” value is given as “no response was detected”.

As for `NCCCC(=O)O` [GABA, γ-Aminobutyric acid, reference compound], the “current response to GABA alone” value was 65 nA on GABAA (α2β2γ2s) receptor (GABA 3 μM); 1180 nA on GABAA (α2β2γ2s) receptor (GABA 300 μM); 105 nA on GABAC (ρ1) receptor (GABA 1 μM); 142 nA on GABAC (ρ1) receptor (GABA 10 μM); 23 nA on GABAC (ρ2) receptor (GABA 1 μM); 35 nA on GABAC (ρ2) receptor (GABA 100 μM). In addition, the “current response to GABA alone” value at GABAC (ρ3) receptor (GABA 10 μM, FIG. 11(c)) is listed as 880 nA. Further, on GABAC (ρ1) receptor (GABA dose-response curve), the “Hill coefficient (nH) for GABA alone” value is on record as 1.9±0.3.

Consider `CP(=O)(O)CCCN` [CGP35024, (3-aminopropyl)methylphosphinc acid], for which, on GABAC receptors, the Kb was 0.8 µM.

“(±)-trans-(3-Aminocyclopentanyl)methylphosphinic acid [(±)-trans-3-ACPMPA]”: on GABAB receptor, the “GABAB agonist activity in words” value was “moderately potent GABAB receptor agonists” and the EC50 was found to be 160 µM. For the same molecule, in the test on GABAA receptors, the “GABAA antagonist activity in words” value is “very weak activity as antagonists” and the “reduction of the current produced by GABA (10 μM)” value was 11%. Besides, on GABAC receptor, the “selectivity for GABAC than GABAA receptors” value is 45 times, the “selectivity for GABAC than GABAB receptors” value worked out at 24 times, the “times less potent than TPMPA” value was determined as 3 times and the Kb worked out at 6.6 µM.

As to “(±)-cis-(3-Aminocyclopentanyl)methylphosphinic acid [(±)-cis-3-ACPMPA]”, at GABAB receptor, the “GABAB agonist activity in words” value is on record as “moderately potent GABAB receptor agonists” and the concentration giving a half-maximal response (EC50) is 50 µM. In addition, in the test with GABAA receptors, the “GABAA antagonist activity in words” value is “very weak activity as antagonists” and the “reduction of the current produced by GABA (10 μM)” value turned out to be 8%. Also, on GABAC receptor, the “selectivity for GABAC than GABAA receptors” value was “more than 100 times”, the “selectivity for GABAC than GABAB receptors” value worked out at 50 times, the “times more potent than (±)-cis-3-ACPBPA at the GABAC receptors” value is given as 12 times and the “times more potent than TPMPA” value came out at 2 times. Further, the Kb at GABAC receptor stood at 1 µM.

For the molecule `CCCCP(=O)(O)[C@@H]1CC[C@@H](N)C1` (racemic) [(±)-trans-3-ACPBPA, (±)-trans-(3-aminocyclopentanyl)butylphosphinic acid], at GABAB receptor, the Kb is over 1000 µM, the “effect as agonists or antagonists” value is given as “no effect as agonists or antagonists” and the inhibition at 1000 µM stood at 10%. Moreover, at GABAA (α2β2γ2s) receptor, the “effect as agonist or antagonist” value is “did not act as an agonist or antagonist; also recorded: no effect as an agonist or antagonist; also recorded: no effect as an agonist or an antagonist; also recorded: No effect”, the “current response to compound” value worked out at 60 nA and the “response to compound alone” value is listed as “no detectable response”. On GABAC (ρ1) receptor, the Kb is 43.8 ± 5.1 µM, the “antagonist activity in words” value is on record as “potent antagonists”, the “current response to compound” value was determined as 34 nA and the “response to compound alone” value is on record as “no detectable response”. Further, on GABAC (ρ1) receptor, the “Hill coefficient (nH) for GABA in the presence of the antagonist” value came out at 2.2±0.2; the “I/Imax, maximal GABA response maintained in the presence of the antagonist” value is reported as 0.94±0.05; the type of antagonism entry is listed as “competitive antagonists”; the inhibition at 100 µM came out at 77%. At GABAB (1b,2) receptor, the Kb is over 300 µM, the “effect as agonist or antagonist” value is listed as “did not act as an agonist or antagonist; also recorded: no apparent effect as an agonist or antagonist; also recorded: no effect as agonists or antagonists; also recorded: No effect”, the “current response to compound” value stood at 15 nA and the “response to compound alone” value is listed as “no detectable response”. Moreover, on GABAC (ρ2) receptor, the “antagonist activity in words” value is recorded as “potent antagonists”, the “current response to compound” value stood at 17 nA, the “response to compound alone” value is listed as “no measurable response” and the inhibition at 100 µM was determined as 32%. Besides, on GABAC (ρ3) receptor, the “antagonist activity in words” value is “potent antagonists” and the inhibition at 100 µM was found to be 45%. For the same molecule, on GABAC (ρ3) receptor (FIG. 11(c)), the “current response to compound” value is 455 nA and the “response to compound alone” value is reported as “no visible response”. For the same molecule, at GABAB (1a,2) receptor, the Kb was over 300 µM, the “effect as agonist or antagonist” value was “did not act as an agonist or antagonist; also recorded: no apparent effect as an agonist or antagonist; also recorded: no effect as agonists or antagonists; also recorded: No effect”, the “current response to compound” value was 407 nA and the “response to compound alone” value is “no detectable response”.

For `NCCC[PH](=O)O` [CGP27492, 3-aminopropylphosphinic acid], the Kb on GABAC receptors is 0.8 µM.

As for `NCCCP(=O)(O)O` [3-APA, 3-aminopropylphosphonic acid], the Kb at GABAC receptors is 1.8 µM.

Values taken from patent publication US6962907B2, “Neurologically-active compounds” (The University of Sydney, priority 2001, dated 2005).
